Experimental data published in patent US9730944B2, “Antiviral activity of novel bicyclic heterocycles” (priority 2010, dated 2017).
≈ marks a conversion by molar mass, not a printed value.

Tests used:
hRV-70 = assay: Rhinovirus type 70 antiviral assay in Hela Rh cells, MTS readout; assay type: cell-based, Human rhinovirus; details: Human rhinovirus sp., HRV70, HeLa Rh, Hela Rh cells; read-out: hRV-70 EC50
hRV-14 = assay: Rhinovirus type 14 antiviral assay in Hela Rh cells, MTS readout; assay type: cell-based, Human rhinovirus; details: Rhinovirus B, HRV14, HeLa Rh, Hela Rh cells; read-out: hRV-14 EC50
hRV-39 = assay: Rhinovirus type 39 antiviral assay in Hela Rh cells, MTS readout; assay type: cell-based, Human rhinovirus; details: Human rhinovirus sp., HRV39, HeLa Rh, Hela Rh cells; read-out: hRV-39 EC50
hRV-45 = assay: Rhinovirus type 45 antiviral assay in Hela Rh cells, MTS readout; assay type: cell-based, Human rhinovirus; details: Human rhinovirus sp., HRV45, HeLa Rh, Hela Rh cells; read-out: hRV-45 EC50
hRV-72 = assay: Rhinovirus type 72 antiviral assay in Hela Rh cells, MTS readout; assay type: cell-based, Human rhinovirus; details: Human rhinovirus sp., HRV72, HeLa Rh, Hela Rh cells; read-out: hRV-72 EC50
hRV-42 = assay: Rhinovirus type 42 antiviral assay in Hela Rh cells, MTS readout; assay type: cell-based, Human rhinovirus; details: Human rhinovirus sp., HRV42, HeLa Rh, Hela Rh cells; read-out: hRV-42 EC50
hRV-86 = assay: Rhinovirus type 86 antiviral assay in Hela Rh cells, MTS readout; assay type: cell-based, Human rhinovirus; details: Human rhinovirus sp., HRV86, HeLa Rh, Hela Rh cells; read-out: hRV-86 EC50
[1] = Cytostatic/cytotoxic effect in Hela Rh cells (rhinovirus methodology, MTS); details: human, CC50, Hela Rh cells
hRV-63 = assay: Rhinovirus type 63 antiviral assay in Hela Rh cells, MTS readout; assay type: cell-based, Human rhinovirus; details: Human rhinovirus sp., HRV63, HeLa Rh, Hela Rh cells; read-out: hRV-63 EC50
hRV-2 = assay: Rhinovirus type 2 antiviral assay in Hela Rh cells, MTS readout; assay type: cell-based, Human rhinovirus; details: Rhinovirus A, HRV2, HeLa Rh, Hela Rh cells; read-out: hRV-2 EC50
hRV-29 = assay: Rhinovirus type 29 antiviral assay in Hela Rh cells, MTS readout; assay type: cell-based; details: Human rhinovirus sp., HRV29, HeLa Rh, Hela Rh cells; read-out: hRV-29 EC50
hRV-9 = assay: Rhinovirus type 9 antiviral assay in Hela Rh cells, MTS readout; assay type: cell-based, Human rhinovirus; details: Human rhinovirus sp., HRV9, HeLa Rh, Hela Rh cells; read-out: hRV-9 EC50
hRV-85 = assay: Rhinovirus type 85 antiviral assay in Hela Rh cells, MTS readout; assay type: cell-based, Human rhinovirus; details: Human rhinovirus sp., HRV85, HeLa Rh, Hela Rh cells; read-out: hRV-85 EC50
hRV-41 = assay: Rhinovirus type 41 antiviral assay in Hela Rh cells, MTS readout; assay type: cell-based, Human rhinovirus; details: Human rhinovirus sp., HRV41, HeLa Rh, Hela Rh cells; read-out: hRV-41 EC50
hRV-15 = assay: Rhinovirus type 15 antiviral assay in Hela Rh cells, MTS readout; assay type: cell-based, Human rhinovirus; details: Human rhinovirus sp., HRV15, HeLa Rh, Hela Rh cells; read-out: hRV-15 EC50

Structure (SMILES)	EC50 (hRV-70)	EC50 (hRV-14)	EC50 (hRV-39)	EC50 (hRV-45)	EC50 (hRV-72)	EC50 (hRV-42)	EC50 (hRV-86)	CC50 [1]	EC50 (hRV-63)	EC50 (hRV-2)	EC50 (hRV-29)	EC50 (hRV-9)	EC50 (hRV-85)	EC50 (hRV-41)	EC50 (hRV-15)
Nc1nc(N2CCN(C(=O)COc3cccc([N+](=O)[O-])c3)CC2)c2nc(CCc3ccc(F)cc3)sc2n1 [Example 131, 5-amino-2-[2-(4-fluorophenyl)ethyl]-7-(4-[2-(3-nitrophenoxy)acetyl]piperazin-1-yl)-thiazolo[5,4-d]pyrimidine]	15.3 µg/mL (≈ 28.4 µM)	> 50 µg/mL	1.52 µg/mL (≈ 2.83 µM)	9.05 µg/mL (≈ 16.8 µM)	37.7 µg/mL (≈ 70.2 µM)	12.3 µg/mL (≈ 22.8 µM)	7.07 µg/mL (≈ 13.2 µM)	> 50 µg/mL	34.5 µg/mL (≈ 64.3 µM)	2.5 µg/mL (≈ 4.65 µM)	> 50 µg/mL	2.11 µg/mL (≈ 3.93 µM)	7.26 µg/mL (≈ 13.5 µM)	> 50 µg/mL	> 50 µg/mL
Nc1nc(N2CCN(C(=O)COc3ccc(O)cc3)CC2)c2nc(CCc3ccc(F)cc3)sc2n1 [Example 224, 1-(4-(5-amino-2-(4-fluorophenethyl)thiazolo[5,4-d]pyrimidin-7-yl)piperazin-1-yl)-2-(4-hydroxyphenoxy)ethanone]	8.62 µg/mL (≈ 16.9 µM)	3.44 µg/mL (≈ 6.76 µM)	0.32 µg/mL (≈ 0.629 µM)	4.55 µg/mL (≈ 8.95 µM)	> 50 µg/mL	> 50 µg/mL	20 µg/mL (≈ 39.4 µM)	> 50 µg/mL	25.4 µg/mL (≈ 49.8 µM)	0.66 µg/mL (≈ 1.3 µM)	0.49 µg/mL (≈ 0.963 µM)	0.89 µg/mL (≈ 1.75 µM)	2.09 µg/mL (≈ 4.11 µM)	2.26 µg/mL (≈ 4.44 µM)	2.32 µg/mL (≈ 4.56 µM)
COC(=O)c1ccc(OCC(=O)N2CCN(c3nc(N)nc4sc(CCc5ccc(F)cc5)nc34)CC2)cc1 [Example 225, methyl 4-(2-(4-(5-amino-2-(4-fluorophenethyl)thiazolo[5,4-d]pyrimidin-7-yl)piperazin-1-yl)-2-oxoethoxy)benzoate]	> 50 µg/mL	> 50 µg/mL	> 50 µg/mL	43.1 µg/mL (≈ 78.3 µM)	> 50 µg/mL	> 50 µg/mL	> 50 µg/mL	5.34 µg/mL (≈ 9.7 µM)	39.7 µg/mL (≈ 72.1 µM)	1.12 µg/mL (≈ 2.03 µM)	> 50 µg/mL	> 50 µg/mL	14.6 µg/mL (≈ 26.5 µM)	> 50 µg/mL	> 50 µg/mL
Nc1nc(N2CCN(C(=O)COc3ccc(OC(F)(F)F)cc3)CC2)c2nc(CCc3ccc(F)cc3)sc2n1 [Example 226, 1-(4-(5-amino-2-(4-fluorophenethyl)thiazolo[5,4-d]pyrimidin-7-yl)piperazin-1-yl)-2-(4-(trifluoromethoxy)phenoxy)ethanone]	> 50 µg/mL	> 50 µg/mL	> 50 µg/mL	> 50 µg/mL	> 50 µg/mL	> 50 µg/mL	> 50 µg/mL	> 50 µg/mL	> 50 µg/mL	> 50 µg/mL	> 50 µg/mL	> 50 µg/mL	29.9 µg/mL (≈ 51.9 µM)	> 50 µg/mL	> 50 µg/mL
CC(=O)c1ccc(OCC(=O)N2CCN(c3nc(N)nc4sc(CCc5ccc(F)cc5)nc34)CC2)cc1 [Example 227, 2-(4-acetylphenoxy)-1-(4-(5-amino-2-(4-fluorophenethyl)thiazolo[5,4-d]pyrimidin-7-yl)piperazin-1-yl)ethanone]	> 50 µg/mL	> 50 µg/mL	0.3 µg/mL (≈ 0.561 µM)	35.4 µg/mL (≈ 66.1 µM)	> 50 µg/mL	> 50 µg/mL	4.59 µg/mL (≈ 8.59 µM)	> 50 µg/mL	30.6 µg/mL (≈ 57.2 µM)	0.26 µg/mL (≈ 0.486 µM)	4.8 µg/mL (≈ 8.98 µM)	0.56 µg/mL (≈ 1.05 µM)	2.19 µg/mL (≈ 4.1 µM)	> 50 µg/mL	> 50 µg/mL
Nc1nc(N2CCN(C(=O)COc3cccc(Cl)c3)CC2)c2nc(CCc3ccc(F)cc3)sc2n1 [Example 228, 1-(4-(5-amino-2-(4-fluorophenethyl)thiazolo[5,4-d]pyrimidin-7-yl)piperazin-1-yl)-2-(3-chlorophenoxy)ethanone]	10 µg/mL (≈ 19.1 µM)	9.21 µg/mL (≈ 17.5 µM)	1.28 µg/mL (≈ 2.43 µM)		> 50 µg/mL		4.86 µg/mL (≈ 9.22 µM)	> 50 µg/mL	13.8 µg/mL (≈ 26.1 µM)	1.27 µg/mL (≈ 2.41 µM)	1.38 µg/mL (≈ 2.62 µM)	1.16 µg/mL (≈ 2.2 µM)	4.14 µg/mL (≈ 7.86 µM)	> 50 µg/mL	43.9 µg/mL (≈ 83.2 µM)
COc1ccc(OCC(=O)N2CCN(c3nc(N)nc4sc(Cc5ccc(F)cc5)nc34)CC2)cc1 [Example 230, 1-(4-(5-amino-2-(4-fluorobenzyl)thiazolo[5,4-d]pyrimidin-7-yl)piperazin-1-yl)-2-(4-methoxyphenoxy)ethanone]	2.37 µg/mL (≈ 4.66 µM)	0.39 µg/mL (≈ 0.767 µM)	0.04 µg/mL (≈ 0.0787 µM)	1.13 µg/mL (≈ 2.22 µM)	8.55 µg/mL (≈ 16.8 µM)	< 0.39 µg/mL	2.36 µg/mL (≈ 4.64 µM)	> 50 µg/mL	0.54 µg/mL (≈ 1.06 µM)		0.04 µg/mL (≈ 0.0787 µM)	0.09 µg/mL (≈ 0.177 µM)	0.61 µg/mL (≈ 1.2 µM)	0.58 µg/mL (≈ 1.14 µM)	0.38 µg/mL (≈ 0.747 µM)
Nc1nc(N2CCN(C(=O)COc3ccc(F)cc3)CC2)c2nc(-c3ccc(F)cc3)sc2n1 [Example 233, 1-(4-(5-amino-2-(4-fluorophenyl)thiazolo[5,4-d]pyrimidin-7-yl)piperazin-1-yl)-2-(4-fluorophenoxy)ethanone]	< 0.39 µg/mL	< 0.02 µg/mL	< 0.02 µg/mL	< 0.39 µg/mL	0.88 µg/mL (≈ 1.82 µM)	< 0.39 µg/mL	< 0.39 µg/mL	> 50 µg/mL	< 0.39 µg/mL	< 0.02 µg/mL	< 0.02 µg/mL	< 0.02 µg/mL	< 0.39 µg/mL	< 0.39 µg/mL	< 0.02 µg/mL
COc1ccc(OCC(=O)N2CCN(c3nc(N)nc4sc(-c5ccc(F)cc5)nc34)CC2)cc1 [Example 234, 1-(4-(5-amino-2-(4-fluorophenyl)thiazolo[5,4-d]pyrimidin-7-yl)piperazin-1-yl)-2-(4-methoxyphenoxy)ethanone]	> 50 µg/mL	> 50 µg/mL	0.08 µg/mL (≈ 0.162 µM)		> 50 µg/mL	30.1 µg/mL (≈ 60.9 µM)	> 50 µg/mL	> 50 µg/mL	1.32 µg/mL (≈ 2.67 µM)	0.06 µg/mL (≈ 0.121 µM)	0.04 µg/mL (≈ 0.0809 µM)		< 0.39 µg/mL	25.5 µg/mL (≈ 51.6 µM)	29.3 µg/mL (≈ 59.2 µM)
COc1ccc(OCC(=O)N2CCN(c3nc(N)nc4sc(CCc5ccc(C)cc5)nc34)CC2)cc1 [Example 259, 1-(4-(5-amino-2-(4-methylphenethyl)thiazolo[5,4-d]pyrimidin-7-yl)piperazin-1-yl)-2-(4-methoxyphenoxy)ethanone]	> 50 µg/mL	> 50 µg/mL	0.32 µg/mL (≈ 0.617 µM)	2.56 µg/mL (≈ 4.94 µM)	> 50 µg/mL	> 50 µg/mL		> 50 µg/mL	18.3 µg/mL (≈ 35.3 µM)	0.48 µg/mL (≈ 0.925 µM)	0.41 µg/mL (≈ 0.791 µM)	0.35 µg/mL (≈ 0.675 µM)	1.52 µg/mL (≈ 2.93 µM)	> 50 µg/mL	> 50 µg/mL
Cc1ccc(CCc2nc3c(N4CCN(C(=O)COc5ccc(Cl)cc5)CC4)nc(N)nc3s2)cc1 [Example 260, 1-(4-(5-amino-2-(4-methylphenethyl)thiazolo[5,4-d]pyrimidin-7-yl)piperazin-1-yl)-2-(4-chlorophenoxy)ethanone]	> 50 µg/mL	> 50 µg/mL	13 µg/mL (≈ 24.8 µM)	2.46 µg/mL (≈ 4.7 µM)	> 50 µg/mL	> 50 µg/mL	> 50 µg/mL	> 50 µg/mL	27.9 µg/mL (≈ 53.3 µM)		> 50 µg/mL	> 50 µg/mL	1.35 µg/mL (≈ 2.58 µM)	> 50 µg/mL	> 50 µg/mL
COc1ccc(OCC(=O)N2CCN(c3nc(N)nc4sc(-c5ccc(C)cc5)nc34)CC2)cc1 [Example 294, 1-(4-(5-amino-2-p-tolylthiazolo[5,4-d]pyrimidin-7-yl)piperazin-1-yl)-2-(4-methoxyphenoxy)ethanone]	5.26 µg/mL (≈ 10.7 µM)	29.1 µg/mL (≈ 59.4 µM)	< 0.02 µg/mL	< 0.39 µg/mL	20.6 µg/mL (≈ 41.9 µM)	0.63 µg/mL (≈ 1.28 µM)		> 50 µg/mL	< 0.39 µg/mL	< 0.02 µg/mL	< 0.02 µg/mL	0.02 µg/mL (≈ 0.0408 µM)	< 0.39 µg/mL	0.43 µg/mL (≈ 0.876 µM)	1.82 µg/mL (≈ 3.71 µM)
CCCCCc1nc2c(N3CCN(C(=O)COc4ccc(Cl)cc4)CC3)nc(N)nc2s1 [Example 297, 1-(4-(5-amino-2-pentylthiazolo[5,4-d]pyrimidin-7-yl)piperazin-1-yl)-2-(4-chlorophenoxy)ethanone]	4.31 µg/mL (≈ 9.07 µM)	0.4 µg/mL (≈ 0.842 µM)	0.08 µg/mL (≈ 0.168 µM)	2.29 µg/mL (≈ 4.82 µM)	2.46 µg/mL (≈ 5.18 µM)	4.45 µg/mL (≈ 9.37 µM)	2.42 µg/mL (≈ 5.09 µM)	> 50 µg/mL	0.53 µg/mL (≈ 1.12 µM)		0.13 µg/mL (≈ 0.274 µM)	0.14 µg/mL (≈ 0.295 µM)	1.01 µg/mL (≈ 2.13 µM)	1.06 µg/mL (≈ 2.23 µM)	0.38 µg/mL (≈ 0.8 µM)
